What all share (type): cell-based
The subject of experiment [1] is Aβ42. The experiment in a line: Screening for γ-secretase-modulating activity, Method 2: Aβ42 Alphalisa on SKNBE2 cell supernatant. Conditions: Method 2, Table 3c, SKNBE2 cells carrying APP 695 wild type, overnight incubation. The procedure: (§1) Screening was carried out using SKNBE2 cells carrying the APP 695—wild type, grown in Dulbecco's Modified Eagle's Medium/Nutrient mixture F-12 (DMEM/NUT-mix F-12) (HAM) provided by Invitrogen (cat no. 10371-029) containing 5% Serum/Fe supplemented with 1% non-essential amino acids, 1-glutamine 2 mM, Hepes 15 mM, penicillin 50 U/ml (units/ml) en streptomycin 50 μg/ml. Cells were grown to near confluency.
(§2) The screening was performed using a modification of the assay as described in Citron et al (1997) Nature Medicine 3: 67. Briefly, cells were plated in a 384-well plate at 10^4 cells/well in Ultraculture (Lonza, BE12-725F) supplemented with 1% glutamine (Invitrogen, 25030-024), 1% non-essential amino acid (NEAA), penicillin 50 U/ml en streptomycin 50 μg/ml in the presence of test compound at different test concentrations. The cell/compound mixture was incubated overnight at 37° C., 5% CO2. The next day the media were assayed by two sandwich immuno-assays, for Aβ42 and Aβtotal.
(§3) Aβtotal and Aβ42 concentrations were quantified in the cell supernatant using the Aphalisa technology (Perkin Elmer). Alphalisa is a sandwich assay using biotinylated antibody attached to streptavidin coated donorbeads and antibody conjugated to acceptor beads. In the presence of antigen, the beads come into close proximity. The excitation of the donor beads provokes the release of singlet oxygen molecules that trigger a cascade of energy transfer in the acceptor beads, resulting in light emission. To quantify the amount of Aβ42 in the cell supernatant, monoclonal antibody specific to the C-terminus of Aβ42 (JRF/cAβ42/26) was coupled to the receptor beads and biotinylated antibody specific to the N-terminus of Aβ (JRF/AβN/25) was used to react with the donor beads. To quantify the amount of Aβtotal in the cell supernatant, monoclonal antibody specific to the N-terminus of Aβ (JRF/AβN/25) was coupled to the receptor beads and biotinylated antibody specific to the mid region of Aβ (biotinylated 4G8) was used to react with the donor beads.
(§4) To obtain the values reported in Table 3c, the data were calculated as percentage of the maximum amount of amyloid Beta 42 measured in the absence of the test compound. The sigmoidal dose response curves were analyzed using non-linear regression analysis with percentage of the control plotted against the log concentration of the compound. A 4-parameter equation was used to determine the IC50.

For experiment [2], the system named is Aβtotal. The experiment in a line: Screening for γ-secretase-modulating activity, Method 2: Aβtotal Alphalisa on SKNBE2 cell supernatant. Conditions: Method 2, Table 3c, SKNBE2 cells carrying APP 695 wild type, overnight incubation. The procedure:
as §1, §2, §3, §4
Background: Bead proximity is the source of the signal in Alpha formats.

Experiment [3] relates to Aβ42. The experiment in a line: Screening for γ-secretase-modulating activity, Method 1: Aβ42 sandwich ELISA on SKNBE2 cell media. Conditions: SKNBE2 cells carrying APP 695 wild type. A digest of the protocol:
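SKNBE2 cells expressing wild-type APP695 were treated with compound for 18 h in Ultraculture/1% glutamine. Secreted Aβ42 was quantified by sandwich ELISA (C-terminal capture, biotinylated 3D6, TMB, 450 nm), with WST-1 used as a toxicity check. IC50 was derived from 4-parameter fits of % inhibition or % of untreated control.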

For experiment [4], the system named is Aβtotal. The experiment in a line: Screening for γ-secretase-modulating activity, Method 1: Aβtotal sandwich ELISA on SKNBE2 cell media. Conditions: SKNBE2 cells carrying APP 695 wild type. The method, boiled down:
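SKNBE2 cells expressing wild-type APP 695 were treated with compound for 18 hours. Aβtotal in the medium was measured by sandwich ELISA (6E10 capture, biotinylated 4G8 detection, fluorogenic peroxidase read-out). IC50 came from a 4-parameter fit of % inhibition with top/bottom fixed at 100/0 and Hill slope 1, or as averaged IC50 from % of untreated control.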

[5] abbreviates: Homo sapiens, Table 3a, 18 hours, XLfit, top/bottom fixed to 100 and 0, hill slope 1.
Where [6] appears, read: Homo sapiens, Table 3b, non-linear regression of % of control, averaged IC50 values.
Where [7] appears, read: Table 3a, 18 hours, XLfit, top/bottom fixed to 100 and 0, hill slope 1.
[8] abbreviates: Table 3b, non-linear regression of % of control, averaged IC50 values.

One may read the IC50 as the midpoint of a concentration-inhibition curve.

Consider `COc1cc(Nc2cccc3c2nc(-c2ccc(F)cc2)n3C(C)C)ccc1-n1cnc(C)c1` [Compound 2], for which the IC50 in experiment [1] (Homo sapiens) was 9 nM; in experiment [2] (Homo sapiens), 9330 nM; in experiment [3] (setting [5]) it was 12 nM; in experiment [3] (setting [6]) it was 12 nM; in experiment [4] (setting [5]), above 1000 nM; in experiment [4] (setting [6]), above 1000 nM.

For the compound `COc1cc(Nc2cccc3c2nc(CC2CCNCC2)n3C)ccc1-n1cnc(C)c1` [Compound 9], the IC50 in experiment [1] (Homo sapiens) is above 3000 nM; in experiment [2] (Homo sapiens) it was above 3000 nM; in experiment [3] (setting [5]), 600 nM; in experiment [3] (setting [6]) it was 603 nM; in experiment [4] (setting [5]), above 3000 nM; in experiment [4] (setting [6]) it was above 3000 nM.

As for `Cc1ncn(-c2ccc(Nc3cccc4c3nc(C)n4C(C)C)cc2)n1` [Compound 20], the IC50 in experiment [1], in experiment [2], in experiment [3] (setting [7]), in experiment [3] (setting [8]), in experiment [4] (setting [7]) and in experiment [4] (setting [8]) was above 3000 nM throughout.

Turning to `COc1cc(Nc2cccc3c2nc(C)n3Cc2ccccc2)ccc1-n1cnc(C)c1` [Compound 22], the IC50 in experiment [1] is 151 nM; in experiment [2] it was above 10000 nM; in experiment [3] (setting [7]), below 110 nM; in experiment [3] (setting [8]) it was below 110 nM; in experiment [4] (setting [7]) it was above 3000 nM; in experiment [4] (setting [8]) it was above 3000 nM.

Take `Cc1ncn(-c2ccc(Nc3cccc4c3nc(C)n4Cc3ccccc3)cc2)n1` [Compound 23]: the IC50 was above 3000 nM in experiment [1]; above 3000 nM in experiment [2]; 1910 nM in experiment [3] (setting [7]); 1860 nM in experiment [3] (setting [8]); above 10000 nM in experiment [4] (setting [7]); above 10000 nM in experiment [4] (setting [8]).

On to `COc1cc(Nc2cccc3c2nc(SCC(C)C)n3C)ccc1-n1cnc(C)c1` [Compound 33], for which the IC50 in experiment [1] was 245 nM; in experiment [2], above 10000 nM; in experiment [3] (setting [7]) it was below 110 nM; in experiment [3] (setting [8]), below 110 nM; in experiment [4] (setting [7]), above 3000 nM; in experiment [4] (setting [8]) it was above 3000 nM.

In the case of `CCn1c(CCC(F)(F)F)nc2c(Nc3ccc(-n4cnc(C)c4)c(OC)c3)cccc21` [Compound 35], the 50% inhibitory concentration (IC50) was 60 nM in experiment [1]; above 10000 nM in experiment [2]; 24 nM in experiment [3] (setting [7]); 22 nM in experiment [3] (setting [8]); above 1000 nM in experiment [4] (setting [7]); above 10000 nM in experiment [4] (setting [8]).

With `COc1cc(Nc2cccc3oc(C4CCN(C)CC4)nc23)ccc1-n1cnc(C)c1` [Compound 40], the IC50 in experiment [1] is above 3000 nM; in experiment [2], above 3000 nM; in experiment [3] (setting [7]), 1950 nM; in experiment [3] (setting [8]), 1950 nM; in experiment [4] (setting [7]), above 3000 nM; in experiment [4] (setting [8]), above 3000 nM.

As for `COc1cc(Nc2cccc3oc(C4CCN(C(C)=O)CC4)nc23)ccc1-n1cnc(C)c1` [Compound 41], the IC50 in experiment [1] is 7590 nM; in experiment [2] it was above 10000 nM; in experiment [3] (setting [7]) it was above 3000 nM; in experiment [3] (setting [8]), above 3000 nM; in experiment [4] (setting [7]), above 3000 nM; in experiment [4] (setting [8]), above 3000 nM.

`COc1cccc(-c2nc3c(Nc4ccc(-n5cnc(C)c5)c(OC)c4)cccc3n2C)c1` [Compound 49]: the IC50 is 13 nM in experiment [1]; above 10000 nM in experiment [2]; 20 nM in experiment [3] (setting [7]); 28 nM in experiment [3] (setting [8]); above 1000 nM in experiment [4] (setting [7]); above 3000 nM in experiment [4] (setting [8]).

As for `COc1cccc(-c2nc3c(Nc4ccc(-n5cnc(C)n5)cc4)cccc3n2C(C)C)c1` [Compound 51], the IC50 in experiment [1] was 79 nM; in experiment [2], above 10000 nM; in experiment [3] (setting [7]), 53 nM; in experiment [3] (setting [8]) it was 58 nM; in experiment [4] (setting [7]), above 3000 nM; in experiment [4] (setting [8]) it was above 3000 nM.

Regarding `CCOc1cc(C)c(-c2nc3c(Nc4ccc(-n5cnc(C)n5)c(OC)c4)cccc3o2)cc1C(C)C` [Compound 59], the IC50 in experiment [1] was above 3000 nM; in experiment [2], above 3000 nM; in experiment [3] (setting [7]), 7300 nM; in experiment [3] (setting [8]) it was 7760 nM; in experiment [4] (setting [7]) it was 26400 nM; in experiment [4] (setting [8]), above 30000 nM.

For `COc1cc(Nc2cccc3c2nc(-c2ccccc2F)n3C)ccc1-n1cnc(C)c1` [Compound 66], the IC50 in experiment [1] was 21 nM; in experiment [2] it was above 10000 nM; in experiment [3] (setting [7]) it was 27 nM; in experiment [3] (setting [8]), 24 nM; in experiment [4] (setting [7]), above 3000 nM; in experiment [4] (setting [8]) it was above 3000 nM.

For the compound `Cc1cn(-c2ccc(Nc3cccc4c3nc(-c3ccc(F)cc3)n4C)cn2)cn1` [Compound 68], the IC50 is 35 nM in experiment [1]; above 10000 nM in experiment [2]; 27 nM in experiment [3] (setting [7]); 26 nM in experiment [3] (setting [8]); above 1000 nM in experiment [4] (setting [7]); above 1000 nM in experiment [4] (setting [8]).

Turning to `COc1cc(Nc2cccc3c2nc(-c2ccc(F)cc2)n3C(C)(C)C)ccc1-n1cnc(C)n1` [Compound 78], the IC50 in experiment [1] was 100 nM; in experiment [2], above 10000 nM; in experiment [3] (setting [7]), below 110 nM; in experiment [3] (setting [8]) it was below 110 nM; in experiment [4] (setting [7]), above 3000 nM; in experiment [4] (setting [8]), above 3000 nM.

Turning to `COc1cc(Nc2cccc3oc(-c4cccnc4)nc23)ccc1-n1cnc(C)c1` [Compound 86], the IC50 is above 10000 nM in experiment [1]; above 10000 nM in experiment [2]; above 3000 nM in experiment [3] (setting [7]); above 3000 nM in experiment [3] (setting [8]); above 3000 nM in experiment [4] (setting [7]); above 3000 nM in experiment [4] (setting [8]).

For `Cc1ncn(-c2ccc(Nc3cccc4oc(CC(C)C)nc34)nc2)n1` [Compound 87], the IC50 is above 10000 nM in experiment [1]; above 10000 nM in experiment [2]; above 3000 nM in experiment [3] (setting [7]); above 3000 nM in experiment [3] (setting [8]); above 3000 nM in experiment [4] (setting [7]).

With `Cc1ncn(-c2ccc(Nc3cccc4c3nc(-c3ccc(F)cc3)n4C(C)C)nc2)n1` [Compound 89], the IC50 in experiment [1] is 575 nM; in experiment [2] it was above 10000 nM; in experiment [3] (setting [7]), 326 nM; in experiment [3] (setting [8]), 324 nM; in experiment [4] (setting [7]), above 3000 nM; in experiment [4] (setting [8]), above 3000 nM.

With `Cc1ncn(-c2c(F)cc(Nc3cccc4c3nc(-c3ccc(F)cc3)n4C)cc2F)n1` [Compound 102], the IC50 was 1290 nM in experiment [1]; 8130 nM in experiment [2]; 839 nM in experiment [3] (setting [7]); 871 nM in experiment [3] (setting [8]); above 3000 nM in experiment [4] (setting [7]); above 3000 nM in experiment [4] (setting [8]).

With `Cc1ncn(-c2ccc(Nc3cccc4c3nc(-c3ccc(F)cc3)n4C)cc2)n1` [Compound 103], the IC50 was 102 nM in experiment [1], above 10000 nM in experiment [2], 87 nM in experiment [3] (setting [7]) and 89 nM in experiment [3] (setting [8]).

`COc1nc(Nc2cccc3c2nc(-c2ccc(F)cc2)n3C(C)C)ccc1-n1cnc(C)c1` [Compound 116]: the IC50 in experiment [1] worked out at 4 nM; in experiment [2], 6610 nM; in experiment [3] (setting [8]) it was 10 nM.

As to `COc1cc(Nc2cccc3c2nc(-c2ccc(C(F)(F)F)nc2)n3C(C)C)ccc1-n1cnc(C)c1` [Compound 117], the IC50 in experiment [1] was 28 nM; in experiment [2], above 10000 nM; in experiment [3] (setting [8]) it was 33 nM; in experiment [4] (setting [8]), above 3000 nM.

Take `COc1cc(Nc2cccc3c2nc(C2CCOCC2)n3C(C)C)ccc1-n1cnc(C)n1` [Compound 120]: the IC50 is 9770 nM in experiment [1], above 10000 nM in experiment [2] and above 3000 nM in experiment [3] (setting [8]).

In the case of `COc1cc(Nc2cccc3c2nc(-c2ccc(Cl)s2)n3C(C)C)ccc1-n1cnc(C)n1` [Compound 121], the half-maximal inhibitory concentration (IC50) is 34 nM in experiment [1], above 10000 nM in experiment [2], 20 nM in experiment [3] (setting [8]) and above 3000 nM in experiment [4] (setting [8]).

In the case of `Cc1ncn(-c2ccc(Nc3nccc4c3nc(-c3ccc(F)cc3F)n4C)c(F)c2)n1` [Compound 129], the IC50 in experiment [1] was above 10000 nM; in experiment [2], above 10000 nM; in experiment [3] (setting [8]), above 3000 nM.

The values are drawn from patent US8772504B2, “Substituted benzoxazole, benzimidazole, oxazolopyridine and imidazopyridine derivatives as gamma secretase modulators” (Janssen Pharmaceuticals, Inc., priority 2009, dated 2014).
